Reference: PMC4281096 (Journal of Medicinal Chemistry, 2014)

Key:
[1] = ref [24], cited from earlier work; for isomerization after 6 days: acetonitrile/water solution
[2] = tested on: SJSA-1 osteosarcoma tumor cell line
[3] = 17D 200 mg/kg or 31 100 mg/kg, daily oral 14 days
[4] = biological target: recombinant human His-tagged MDM2 protein (residues 1–118) (Homo sapiens, UniProt Q00987); conditions: in words
[5] = tested on: p53 activation and apoptosis in SJSA-1 tumor tissue; conditions: mouse, in vivo, po, 100 mg/kg
[6] = tested on: SJSA-1 osteosarcoma xenografts; conditions: 100 mg/kg, orally daily for 14 days

Chain of recombinant human His-tagged MDM2 protein (residues 1–118) (Q00987 1-118): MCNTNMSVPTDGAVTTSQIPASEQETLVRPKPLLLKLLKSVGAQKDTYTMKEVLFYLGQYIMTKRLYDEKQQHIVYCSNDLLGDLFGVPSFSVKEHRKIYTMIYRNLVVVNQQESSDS

| Compound | IC50 values in inhibition of cell growth [2] | other results |
| --- | --- | --- |
| CC(C)(C)C[C@@H]1N[C@@H](C(=O)N[C@H]2C[C@@](C)(O)C2)[C@H](c2cccc(Cl)c2F)[C@]12C(=O)Nc1cc(Cl)ccc12 [Compound 3] |  | % composition of compound in 1:1 CH3CN/H2O, 0 h ([1]; 0 h): 100%; isomerization after 6 days [1]: 2.3% |
| CC1(C)N[C@@H](C(=O)N[C@H]2CC[C@H](O)CC2)[C@H](c2cccc(Cl)c2F)[C@]12C(=O)Nc1cc(Cl)ccc12 [Compound 12D, (3R,4′S,5′R)-6-Chloro-4′-(3-chloro-2-fluorophenyl)-N-((1R,4R)-4-hydroxycyclohexyl)-2′,2′-dimethyl-2-oxospiro[indoline-3,3′-pyrrolidine]-5′-carboxamide] | low micromolar range |  |
| CCCC1(CCC)N[C@@H](C(=O)N[C@H]2CC[C@H](O)CC2)[C@H](c2cccc(Cl)c2F)[C@]12C(=O)Nc1cc(Cl)ccc12 [Compound 14D, (3R,4′S,5′R)-6-Chloro-4′-(3-chloro-2-fluorophenyl)-N-((1r,4R)-4-hydroxycyclohexyl)-2-oxo-2′,2′-di-n-propylspiro[indoline-3,3′-pyrrolidine]-5′-carboxamide] | low micromolar range |  |
| O=C(N[C@H]1CC[C@H](O)CC1)[C@@H]1NC2(CCC2)[C@]2(C(=O)Nc3cc(Cl)ccc32)[C@H]1c1cccc(Cl)c1F [Compound 15C, (3′S,4′S,5′R)-6″-Chloro-4′-(3-chloro-2-fluorophenyl)-N-((1R,4R)-4-hydroxycyclohexyl)-2″-oxodispiro[cyclobutane-1,2′-pyrrolidine-3′,3″-indoline]-5′-carboxamide] | low micromolar range |  |
| O=C(N[C@H]1CC[C@H](O)CC1)[C@@H]1NC2(CCC2)[C@@]2(C(=O)Nc3cc(Cl)ccc32)[C@H]1c1cccc(Cl)c1F [Compound 15D, (3′R,4′S,5′R)-6″-Chloro-4′-(3-chloro-2-fluorophenyl)-N-((1R,4R)-4-hydroxycyclohexyl)-2″-oxodispiro[cyclobutane-1,2′-pyrrolidine-3′,3″-indoline]-5′-carboxamide] | low micromolar range |  |
| O=C(N[C@H]1CC[C@H](O)CC1)[C@@H]1NC2(CCCC2)[C@@]2(C(=O)Nc3cc(Cl)ccc32)[C@H]1c1cccc(Cl)c1F [Compound 16D, (3′R,4′S,5′R)-6″-Chloro-4′-(3-chloro-2-fluorophenyl)-N-((1R,4R)-4-hydroxycyclohexyl)-2″-oxodispiro[cyclopentane-1,2′-pyrrolidine-3′,3″-indoline]-5′-carboxamide] | sub-micromolar |  |
| O=C(N[C@H]1CC[C@H](O)CC1)[C@@H]1NC2(CCCCC2)[C@@]2(C(=O)Nc3cc(Cl)ccc32)[C@H]1c1cccc(Cl)c1F [Compound 17D, (3′R,4′S,5′R)-6″-Chloro-4′-(3-chloro-2-fluorophenyl)-N-((1R,4R)-4-hydroxycyclohexyl)-2″-oxodispiro[cyclohexane-1,2′-pyrrolidine-3′,3″-indoline]-5′-carboxamide] | sub-micromolar | signs of toxicity during or after the treatment [3]: did not show any signs of toxicity; weight loss [3]: no weight loss |
| N[C@@H](C(=O)N[C@H]1CC[C@H](O)CC1)[C@H](c1cccc(Cl)c1F)C1C(=O)Nc2cc(Cl)ccc21 (stereo partly drawn) [Compound 20] |  | binding to MDM2 [4]: does not bind to MDM2 |
| O=C(NCCN1CCOCC1)[C@@H]1NC2(CCC2)[C@]2(C(=O)Nc3cc(Cl)ccc32)[C@H]1c1cccc(Cl)c1F [Compound 22C] | low micromolar range |  |
| O=C(NCCN1CCOCC1)[C@@H]1NC2(CCC2)[C@@]2(C(=O)Nc3cc(Cl)ccc32)[C@H]1c1cccc(Cl)c1F [Compound 22D] | low micromolar range |  |
| O=C(NCCN1CCOCC1)[C@@H]1NC2(CCCCC2)[C@@]2(C(=O)Nc3cc(Cl)ccc32)[C@H]1c1cccc(Cl)c1F [Compound 23D] | sub-micromolar |  |
| O=C(NCC[C@H](O)CO)[C@@H]1NC2(CCC2)[C@]2(C(=O)Nc3cc(Cl)ccc32)[C@H]1c1cccc(Cl)c1F [Compound 25C] | low micromolar range |  |
| O=C(NCC[C@H](O)CO)[C@@H]1NC2(CCC2)[C@@]2(C(=O)Nc3cc(Cl)ccc32)[C@H]1c1cccc(Cl)c1F [Compound 25D] | low micromolar range |  |
| O=C(NCC[C@H](O)CO)[C@@H]1NC2(CCCCC2)[C@@]2(C(=O)Nc3cc(Cl)ccc32)[C@H]1c1cccc(Cl)c1F [Compound 26D] | sub-micromolar |  |
| C[C@]1(O)C[C@@H](NC(=O)[C@@H]2NC3(CCC3)[C@]3(C(=O)Nc4cc(Cl)ccc43)[C@H]2c2cccc(Cl)c2F)C1 [Compound 28C] | low micromolar range |  |
| C[C@]1(O)C[C@@H](NC(=O)[C@@H]2NC3(CCCCC3)[C@@]3(C(=O)Nc4cc(Cl)ccc43)[C@H]2c2cccc(Cl)c2F)C1 [Compound 29D] | sub-micromolar |  |
| O=C(O)c1ccc(NC(=O)[C@@H]2NC3(CCCCC3)[C@@]3(C(=O)Nc4cc(Cl)ccc43)[C@H]2c2cccc(Cl)c2F)cc1 [Compound 31, 4-((3′R,4′S,5′R)-6″-Chloro-4′-(3-chloro-2-fluorophenyl)-2″-oxodispiro[cyclohexane-1,2′-pyrrolidine-3′,3″-indoline]-5′-carboxamido)benzoic Acid] |  | PARP cleavage (apoptosis induction) in tumor tissue [5]: robust cleavage of PARP; p53 activation (accumulation of p53, MDM2 and p21 proteins) in tumor tissue [5]: effectively activated p53; mice with no detectable tumor ([6]; day 25, of eight mice): three; tumor regression ([6]; in words): achieved significant tumor regression; signs of toxicity during or after the treatment [3]: did not show any signs of toxicity; weight loss [3]: no weight loss |
| CC(C)(C)C[C@@H]1N[C@@H](C(=O)NCCN2CCOCC2)[C@H](c2cccc(Cl)c2F)[C@]12C(=O)Nc1cc(Cl)ccc12 [MI-63] |  | isomerization after 6 days [1]: 17.3% |
| CC(C)(C)C[C@@H]1N[C@@H](C(=O)NCC[C@H](O)CO)[C@H](c2cccc(Cl)c2F)[C@]12C(=O)Nc1cc(Cl)ccc12 [MI-147] |  | isomerization after 6 days [1]: 8.6% |
